Test results as given in US20170121768A1, “ATRIAL FIBRILLATION THERAPY” (The University of Birmingham, priority 2014, published 2017).

Experiments:
[1] = test system: wild type mouse heart (left atrium); experiment: Electrophysiological study in the isolated Langendorff-perfused beating heart, wild type mice
From the text: (§1) The inventors studied the effects of the sodium channel blocker flecainide in the isolated, beating heart of wild type mice and mice with a heterozygous deletion of the Pitx2c gene. This mouse model (provided by Nigel Brown, St George's London) is an established model for reduced Pitx2 mRNA expression that is susceptible to AF. […] PITX2c^+/− and WT hearts (3-4 months old), were rapidly excised and Langendorff-perfused to record left atrial (LA) monophasic action potential duration. In this preparation, the beating heart is perfused with a warm, oxygenated modified Krebs-Henseleit solution containing (in mmol/1): NaCl 118; NaHCO3 24.88; KH2PO 1.18; Glucose 5.55; Na-Pyruvate 5; MgSO4 0.83; CaCl2 1.8; KCl 3.52 (95% O2-5% CO2, pH 7.4) at constant perfusion pressure (100±5 mmHg) and coronary flow (4±0.5 ml/min). Thereby, detailed electrophysiological measurements can be taken for 1-2 hours in the beating, functioning, intact heart (perfusate temperature 37° C., perfusion flow rate 3-5 mL/min) (Fabritz et al., Basic Res Cardiol 2003; 98:25-32). An octapolar murine electrophysiology catheter (0.5 mm electrode spacing, CIB'ER MOUSE, NuMED, Hopkinton, N.Y., USA) was inserted into the right atrium (RA) and right ventricle for pacing. Atrial and ventricular electrograms and monophasic action potential (MAP) from the left atrium were simultaneously recorded. After instrumentation, the hearts were subjected to a stabilization period of 10 minutes, followed by observation of spontaneous sinus rhythm for 5 minutes to provoke repolarization-related arrhythmias. Then the right atrium was paced at constant physiological heart rates (80-120 ms paced cycle length) for 1.5 minutes of pacing per heart rate to record steady-state action potential duration, and premature right atrial stimulation was performed using trains of 8 beats following by a premature stimulus in 2 ms steps to determine the effective refractory period (ERP) and inducibility of arrhythmias. Arrhythmias>1 second were counted. The pacing protocol was repeated after adding flecainide acetate (1 μm) to the perfusate. Experiments were accepted for analysis of action potential duration and activation time if they met published quality criteria and if MAPs were stable. […] were accepted for analysis of action potentials and activation times, and signals>0.5 mV amplitude were accepted for evaluation of arrhythmias. Recordings were manually screened for arrhythmias. Atrial fibrillation was defined as >5 closely couple polymorphic consecutive atrial ectopic beats with a cycle length shorter than sinus-rhythm cycle length.

wildtype left atria = experiment: Transmembrane potential recordings in isolated, superfused left atria, wild type; design: species or system mouse; conditions: sharp electrodes
Experimental: (§2) Transmembrane action potentials were recorded from isolated superfused left atria using borosilicate glass microelectrodes (tip resistance 15-30 MΩ), filled with 3 M KCl. […] LA were paced at different cycle lengths at 2 ms pulse width at 2× diastolic threshold through bipolar platinum electrodes. APD was analysed off line (spike 2, CED, UK). After 15 min pacing for equilibration, preparations were paced successively at increasing frequencies from 0.5 to 10 Hz, with 200 beats at each frequency to ensure steady state prior to recording.

Pitx2c+/- left atria = experiment: Transmembrane potential recordings in isolated, superfused left atria, Pitx2c+/-; design: species or system mouse; conditions: sharp electrodes
Experimental: as §2

[2] = test system: Pitx2c+/- mouse heart (left atrium); experiment: Electrophysiological study in the isolated Langendorff-perfused beating heart, Pitx2c+/- mice
From the text: as §1

| SMILES | atrial action potential duration (APD) ([1]; WT hearts, flecainide perfusion, paced cycle lengths 80-100-120 ms) | post-repolarization refractoriness ([1]; WT mice, 80 ms paced cycle length, flecainide perfusion) [ms] | hearts with arrhythmias ([1]; wild type hearts with flecainide (baseline 4/16), arrhythmias >1 second counted) | suppression of inducible atrial fibrillation ([1]; wild type hearts, flecainide acetate 1 μm in perfusate, premature atrial stimulation) | atrial activation times ([1]; wild-type mice, after flecainide perfusion) | resting membrane potential (wildtype left atria) | resting membrane potential (Pitx2c+/- left atria) | effective refractory period (ERP) ([2]; Pitx2c+/- hearts after flecainide perfusion, compared with wild-type) | suppression of inducible atrial fibrillation ([2]; Pitx2c+/- hearts with AF at baseline (8/21), flecainide acetate 1 μm in perfusate, premature atrial stimulation) | atrial action potential duration (APD) ([2]; Pitx2c+/- hearts, flecainide perfusion, paced cycle lengths 80-100-120 ms) | post-repolarization refractoriness ([2]; Pitx2c+/- mice, 80 ms paced cycle length, flecainide perfusion) [ms] | atrial activation times ([2]; Pitx2c+/- mice, after flecainide perfusion) | atrial APD ([1]; WT hearts, sotalol 10 μM, three pairs of mice) | atrial APD ([2]; Pitx2c+/- hearts, sotalol 10 μM, three pairs of mice) |
| --- | --- | --- | --- | --- | --- | --- | --- | --- | --- | --- | --- | --- | --- | --- |
| O=C(NCC1CCCCN1)c1cc(OCC(F)(F)F)ccc1OCC(F)(F)F (centres unmarked) [flecainide] | does not alter atrial APD | 7.5 | 4/11 | did not suppress atrial fibrillation | negligible effect | did not alter resting membrane potential | did not alter resting membrane potential | increases effective refractory periods | suppressed atrial fibrillation in all Pitx2c+/− hearts | does not alter atrial APD | 12 | marked effect |  |  |
| CC(C)NCC(O)c1ccc(NS(C)(=O)=O)cc1 (centres unmarked) [sotalol, d,l sotalol] |  |  |  |  |  |  |  |  |  |  |  |  | prolonged atrial APD | did not alter atrial APD |
